Test results reported in patent US20240307409A1, “ARGININE METHYLTRANSFERASE INHIBITOR AND USE THEREOF” (Cytosinlab Therapeutics Co., Ltd., priority 2021, published 2024).

Columns and labels:
MMA in RKO cells = test: RKO In Cell Western assay (MMA primary antibody); assay type: cell-based; settings: Homo sapiens, 72 hours, read-out: RKO ICW_EC30
Method: RKO was seeded at a concentration of 20,000 cells/ml into a polylysine-coated 96-well plate (Corning #3599), with 2,000 cells per well and 100 μL of culture mediumper well. 500 nL of compound was added to the 96-well plate. 3) The 96-well plate was incubated in a 37° C., 5% CO2 incubator for 72 hours. After three days, the 96-well plate was taken from the incubator, 100 μL of 8% paraformaldehyde solution was added to each well, and the plate was placed at room temperature for 15 min. After 15 min, the liquid in the plate was shaken out and the plate was washed three times with phosphate buffer (1*PBS). The liquid in the plate was shaken out and 200 μL of membrane-breaking buffer (0.1% (v/v) Tween-20 in PBS) was added and the plate was incubated on a shaker for 30 min. After half an hour, the liquid in the plate was shaken out, and blocking buffer was added and the plate was incubated for two hours at room temperature with shaking. After that, the liquid in the plate was shaken off, and the blocking solution containing primary antibody (MMA primary antibody, CST #8711S, 1:1000 v/v) was added to the 96-well plate and the plate was incubated at 4° C. overnight with shaking. The next day, the plate was washed three times with washing solution (0.05% (v/v) Tween-20 in PBS), and a blocking solution containing secondary antibody (goat anti-rabbit IgG (H+L) Invitrogen #31460, 1:10,000 v/v) was added and the plate was incubated for two hours at room temperature. Afterwards, the 96-well plate was washed four times with washing solution. The TMB mixture was added to the 96-well plate and then the plate was incubated for 15 minutes at room temperature with shaking. After that, the reaction terminating solution was added, and the value was read at OD450 nm using an microplate reader. The plate was washed three times with washing solution, and 50 μL of janusgreen staining solution was added, and the plate was incubated for 15 minutes at room temperature with shaking. The reaction was washed ten times with water until no color residue was left. 200 μL of 0.5 M hydrochloric acid solution was added to each well and the plate was incubated for 10 min at room temperature. The value was read at OD595 nm using Flexstation.
Firstly, the ratio OD450/OD595 was calculated for each well
Each plate had six DMSO negative control groups (ZPE) and six 10 μM positive control groups (HPE), and the average of the control group ratios was used to determine the percentage of activation for each test well. The compounds to be tested were triple diluted with DMSO for a total of 8 concentration points with a starting concentration of 5 μM. The equation for calculating the activation percentage of each test well was: […]

Toledo cells = test: Toledo cell proliferation inhibition assay; assay type: cell-based; settings: Homo sapiens, Toledo, 144 h; six-day assay, CellTiter-Glo
How it was run: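 Toledo cells seeded at 2000 cells/well in RPMI 1640 + 10% FBS and incubated with compound for six days at 37° C, 5% CO2. Viability was then read by CellTiter-Glo luminescence after 30 min orbital mixing.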

PRMT1 = PRMT1 (Homo sapiens, UniProt Q99873); test: PRMT1 enzyme activity test; assay type: biochemical; settings: 0.5 nM PRMT1, 3H-SAM, peptide
How it was run: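 Radiometric methylation assay: 0.5 nM PRMT1 preincubated 15 min at room temperature with compound (10-point 3-fold series, 1% DMSO) in pH 8.0 Tris buffer with Tween-20 and DTT. 0.25 uM ³H-SAM and 0.1 uM biotinylated peptide then reacted 120 min. Product captured on streptavidin FlashPlate and counted; IC50 from four-parameter fit of % inhibition.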

PRMT1, sequence (Q99873 whole entry): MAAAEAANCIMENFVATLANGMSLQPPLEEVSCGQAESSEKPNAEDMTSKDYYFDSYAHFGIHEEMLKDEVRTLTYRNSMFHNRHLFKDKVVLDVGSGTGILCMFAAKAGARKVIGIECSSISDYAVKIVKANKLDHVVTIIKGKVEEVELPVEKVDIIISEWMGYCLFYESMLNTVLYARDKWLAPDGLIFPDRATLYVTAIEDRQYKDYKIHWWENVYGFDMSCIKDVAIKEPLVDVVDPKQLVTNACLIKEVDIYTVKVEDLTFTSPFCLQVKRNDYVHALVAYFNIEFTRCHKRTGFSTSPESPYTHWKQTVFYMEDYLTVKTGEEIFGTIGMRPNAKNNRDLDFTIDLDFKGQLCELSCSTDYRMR

Row | IC50 (PRMT1) | SMILES | EC30 (MMA in RKO cells) | IC50 (Toledo cells)
1 | < 50 nM | CNCCN(C)Cc1ccccc1C1CCN(c2ccc(C(F)(F)F)cc2)CC1 [P069] | 250 to 2500 nM | < 1000 nM
2 | < 50 nM | CNCCN(C)Cc1ncccc1C1CCN(CCc2ccccc2)CC1 [P074] | 250 to 2500 nM | < 1000 nM
3 | < 50 nM | CNCCN(C)Cc1ncccc1C1CCc2ccccc2CC1 [P075] | 250 to 2500 nM | < 1000 nM
4 | < 50 nM | CNCCN(C)Cc1ncccc1C1CCN(c2cccc(C(F)F)c2)CC1 [P078] | < 250 nM | < 1000 nM
5 | < 50 nM | CNCCN(C)Cc1ncccc1C1CCN(c2cc(C)cc(C)c2)CC1 [P079] | < 250 nM | < 1000 nM
6 | 50 to 500 nM | CNCCN(C)Cc1nc(C)ccc1C1CCN(c2cccc(C)c2)CC1 [P080] | 250 to 2500 nM | < 1000 nM
7 | < 50 nM | CNCCN(C)Cc1ccc(C)nc1C1CCN(c2cccc(C)c2)CC1 [P081, N^1,N^2-dimethyl-N1-((6-methyl-2-(1-(m-tolyl)piperidin-4-yl)pyridin-3-yl)methyl)ethane-1,2-diamine] | < 250 nM | < 1000 nM
8 | < 50 nM | CNCCN(C)Cc1ccc(C(C)O)cc1C1CCN(c2cccc(C)c2)CC1 (stereo not drawn) [P083] | < 250 nM | < 1000 nM
9 | < 50 nM | CNCCN(C)Cc1ncccc1C1CCN(c2cc(C)cc(F)c2)CC1 [P085] | < 250 nM | < 1000 nM
10 | < 50 nM | CNCCN(C)Cc1ncccc1N1CCc2ccc(C(F)(F)F)cc2CC1 [P088, N^1,N^2-dimethyl-N^1-((3-(7-(trifluoromethyl)-4,5-dihydro-1H-benzo[d]azepin-3(2H)-yl)pyridin-2-yl)methyl)ethane-1,2-diamine] | 250 to 2500 nM | < 1000 nM
11 | < 50 nM | CNCCN(C)Cc1ncccc1C1CCN(c2cccc(Cl)c2)CC1 [P089] | < 250 nM | < 1000 nM
12 | < 50 nM | CNCCN(C)Cc1ncccc1C1CCN(c2cccc(C)c2)CC1 [P094] | < 250 nM | < 1000 nM
13 | < 50 nM | CNCCN(C)Cc1ncccc1C1CCN(c2ccccc2C)CC1 [P095] | < 250 nM | < 1000 nM
14 | < 50 nM | CNCCN(C)Cc1ncccc1N1CCc2cc(F)cc(F)c2CC1 [P106] | 250 to 2500 nM | < 1000 nM
15 | < 50 nM | CNCCN(C)Cc1ncccc1N1CCc2cc(F)c(F)cc2CC1 [P107] | 250 to 2500 nM | < 1000 nM
16 | < 50 nM | CNCCN(C)Cc1ncccc1N1CCc2ccccc2C(C)C1 (stereo not drawn) [P112] | 250 to 2500 nM | < 1000 nM
17 | < 50 nM | CCOCC1(COCC)CCC(c2ccccc2CN(C)CCNC)CC1 [P114] | < 250 nM | < 1000 nM
18 | 50 to 500 nM | CNCCN(C)Cc1ncccc1N1CCC(Oc2cc(C(F)(F)F)cc(C(F)(F)F)c2)CC1 [P122] | > 2500 nM | < 1000 nM
19 | < 50 nM | CNCCN(C)Cc1ncccc1N1CCC(COc2ccc(C(F)(F)F)cc2)CC1 [P130] | 250 to 2500 nM | < 1000 nM
20 | < 50 nM | CNCCN(C)Cc1ncccc1N1CCC(COc2cccc(C(F)(F)F)c2)CC1 [P131] | 250 to 2500 nM | < 1000 nM
21 | < 50 nM | CCOCC1(COCC)CCN(c2ccccc2CN(C)CCNC)CC1 [P136] | 250 to 2500 nM | < 1000 nM
22 | < 50 nM | CNCCN(C)Cc1ncccc1N1CCC(Oc2cc(F)cc(C(F)(F)F)c2)CC1 [P137] | 250 to 2500 nM | < 1000 nM
23 | < 50 nM | CNCCN(C)Cc1ncccc1N1CCC(Oc2cccc(C(F)(F)F)c2)CC1 [P141] | 250 to 2500 nM | < 1000 nM
24 | < 50 nM | CNCCN(C)Cc1ncccc1N1CCC(Oc2ccc(C(F)(F)F)cc2)CC1 [P142] | 250 to 2500 nM | < 1000 nM
25 | < 50 nM | CNCCN(C)Cc1ncccc1C1CCN(c2cccc(OC(F)(F)F)c2)CC1 [P143] | 250 to 2500 nM | < 1000 nM

Row | IC50 (PRMT1) | SMILES | EC30 (MMA in RKO cells) | IC50 (Toledo cells)
26 | < 50 nM | CNCCN(C)Cc1ncccc1N1CCC(Oc2cccc(C(F)F)c2)CC1 [P147] | 250 to 2500 nM | < 1000 nM
27 | < 50 nM | CNCCN(C)Cc1ncccc1N1CCC(Oc2cc(C)cc(C)c2)CC1 [P148] | 250 to 2500 nM | < 1000 nM
28 | < 50 nM | CNCCN(C)Cc1ncccc1N1CCC(C)(COc2ccccc2)CC1 [P149] | 250 to 2500 nM | < 1000 nM
29 | < 50 nM | CNCCN(C)Cc1ccc(-c2cn[nH]c2)cc1C1CCN(c2cccc(C)c2)CC1 [P153] | < 250 nM | < 1000 nM
30 | < 50 nM | CNCCN(C)Cc1ncccc1[C@H]1CC[C@]2(CC1)COC(C)(C)C2 [P157] | 250 to 2500 nM | < 1000 nM
31 | < 50 nM | CNCCN(C)Cc1ncccc1[C@H]1CC[C@@]2(CC1)COC(C)(C)C2 [P158] | < 250 nM | < 1000 nM
32 | < 50 nM | CNCCN(C)Cc1ncccc1N1CCC(COc2ccccc2)CC1 [P165] | 250 to 2500 nM | < 1000 nM
33 | < 50 nM | CNCCN(C)Cc1ccc2[nH]ncc2c1C1CCc2cc(F)c(F)cc2CC1 [P167, N1-((4-(2,3-difluoro-6,7,8,9-tetrahydro-5H-benzo[7]cyclopenten-7-yl)-1H-indazol-5-yl)methyl)-N1,N2-dimethylethane-1,2-diamine] | < 250 nM | < 1000 nM
34 | < 50 nM | CNCCN(C)Cc1ncccc1C1CCN(c2ccccc2OC)CC1 [P170] | 250 to 2500 nM | < 1000 nM
35 | < 50 nM | CNCCN(C)Cc1ncccc1N1CCC(Oc2cccc(C)c2)CC1 [P171] | 250 to 2500 nM | < 1000 nM
36 | < 50 nM | CNCCN(C)Cc1ncccc1N1CCC(Oc2cccc(F)c2)CC1 [P179] | 250 to 2500 nM | < 1000 nM
37 | 50 to 500 nM | CCOCC1(Oc2cccc(C(F)(F)F)c2)CCN(c2cccnc2CN(C)CCNC)CC1 [P184] | > 2500 nM | < 1000 nM
38 | < 50 nM | CNCCN(C)Cc1ncccc1N1CCC(Oc2ccccc2)CC1 [P185] | 250 to 2500 nM | < 1000 nM
39 | < 50 nM | CNCCN(C)Cc1ncccc1N1CCc2ccc(OC)cc2CC1 [P186] | 250 to 2500 nM | < 1000 nM
40 | < 50 nM | CNCCN(C)Cc1ncccc1C1CCN(c2ccc(C#N)c(C)c2)CC1 [P187] | < 250 nM | < 1000 nM
41 | < 50 nM | CNCCN(C)Cc1ccc(N)nc1C1CCc2cc(F)c(F)cc2CC1 [P198] | < 250 nM | < 1000 nM
42 | < 50 nM | CNCCN(C)Cc1ncccc1C1CCN(c2ccc(C#N)cc2)CC1 [P202] | 250 to 2500 nM | < 1000 nM
43 | 50 to 500 nM | CCOCC1(COCC)CCC(c2cnccc2CN(C)CCNC)CC1 [P206] | 250 to 2500 nM | 1000 to 5000 nM
44 | < 50 nM | CCOCC1(COCC)CCC(c2ncccc2CN(C)CCNC)CC1 [P208] | 250 to 2500 nM | < 1000 nM
45 | < 50 nM | CNCCN(C)Cc1ncccc1N1CCc2ccc(C#N)cc2CC1 [P225] | < 250 nM | < 1000 nM
46 | < 50 nM | CNCCN(C)Cc1ccc(N)nc1C1CCN(c2cccc(C)c2)CC1 [P226, N^1-((6-amino-2-(1-(m-tolyl)piperidin-4-yl)pyridin-3-yl)methyl)-N^1,N^2-dimethylethane-1,2-diamine] | < 250 nM | < 1000 nM
47 | < 50 nM | CNCCN(C)Cc1ncccc1C1CCN(c2nc(N(C)C)nc3ccccc23)CC1 [P240] | 250 to 2500 nM | < 1000 nM
48 | < 50 nM | CNCCN(C)Cc1ncccc1N1CCc2ccc(N)cc2CC1 [P243] | 250 to 2500 nM | < 1000 nM
49 | < 50 nM | CNCCN(C)Cc1ncccc1C1CCN(c2ncc3ccccc3n2)CC1 [P250] | 250 to 2500 nM | < 1000 nM
